Experiment: xn = mol fraction of the nth substance listed
Conditions: 100 kPa, Liquid; for mass density: Vibrating tube method; for speed of sound: 288.15 K, Frequency=5 MHz, Pulse-echo method

OCCCCCO [1,5-pentanediol] + O
mass density [kg/m3]
Conditions	278.15 K	283.15 K
x1 = 0.005	999.89	999.55
x1 = 0.0101	1000.22	999.78
x1 = 0.0196	1001.39	1000.73
x1 = 0.0251	1002.34	1001.54
x1 = 0.0304	1003.39	1002.41
x1 = 0.05	1006.63	1005.19
x1 = 0.0769	1009.88	1007.89
x1 = 0.1002	1012.01	1009.64
x1 = 0.1438	1013.87	1011.18
x1 = 0.1845	1014.45	1011.58
x1 = 0.2503	1014	1010.96
x1 = 0.3	1013.14	1010.06
x1 = 0.3343	1012.59	1009.43
x1 = 0.4171	1010.69	1007.58
x1 = 0.454	1009.8	1006.71
x1 = 0.5003	1008.7	1005.6
x1 = 0.5362	1007.8	1004.7
x1 = 0.6177	1006	1003
x1 = 0.6478	1005.3	1002.3
x1 = 0.7025	1004.2	1001.2
x1 = 0.7504	1003.3	1000.3
x1 = 0.7927	1002.5	999.4
x1 = 0.8605	1001.1	998.1
x1 = 0.9004	1000.2	997.3
x1 = 0.9496	999.1	996.1
x1 = 1	998	995

Conditions	speed of sound [m/s]
x1 = 0.0001	1467
x1 = 0.0002	1467.6
x1 = 0.0004	1468.5
x1 = 0.0007	1469.7
x1 = 0.001	1471.1
x1 = 0.0013	1472.4
x1 = 0.0018	1474.5
x1 = 0.0025	1477.3
x1 = 0.0032	1480.3
x1 = 0.0039	1483.3
x1 = 0.0047	1486.5
x1 = 0.0053	1489.1
x1 = 0.0059	1491.7
x1 = 0.0066	1494.6
x1 = 0.0074	1497.4
x1 = 0.0079	1499.7
x1 = 0.0086	1502.2
x1 = 0.0092	1504.6
x1 = 0.0098	1507
x1 = 0.0105	1509.5
x1 = 0.0112	1512
x1 = 0.0118	1514.3
x1 = 0.0125	1516.8
x1 = 0.0131	1519
x1 = 0.0138	1521.4
x1 = 0.0144	1523.8
x1 = 0.0151	1526.1
x1 = 0.0157	1528.2
x1 = 0.0164	1530.5
x1 = 0.0171	1532.7
x1 = 0.0177	1535
x1 = 0.0184	1537.1
x1 = 0.0188	1538.3
x1 = 0.0193	1540.1
x1 = 0.0199	1541.8
x1 = 0.0204	1543.6
x1 = 0.021	1545.5
x1 = 0.0219	1548.2
x1 = 0.0226	1550.3
x1 = 0.0233	1552.4
x1 = 0.024	1554.5
x1 = 0.0247	1556.6
x1 = 0.0256	1559.3
x1 = 0.0266	1562.2
x1 = 0.0278	1565.4
x1 = 0.0289	1568.3
x1 = 0.0299	1571
x1 = 0.0309	1573.7
x1 = 0.0319	1576.4
x1 = 0.0331	1579.3
x1 = 0.0342	1582.3
x1 = 0.0353	1584.9
x1 = 0.0365	1587.7
x1 = 0.0376	1590.3
x1 = 0.0387	1592.9
x1 = 0.0398	1595.3
x1 = 0.0409	1597.9
x1 = 0.042	1600.2
x1 = 0.0431	1602.6
x1 = 0.0445	1605.6
x1 = 0.0456	1607.8
x1 = 0.0473	1611.2
x1 = 0.0482	1612.9
x1 = 0.049	1614.5
x1 = 0.0499	1616.2
x1 = 0.0513	1618.7
x1 = 0.0529	1621.5
x1 = 0.0547	1624.7
x1 = 0.0561	1627.2
x1 = 0.0576	1629.6
x1 = 0.0595	1632.6
x1 = 0.0613	1635.3
x1 = 0.0632	1638.1
x1 = 0.0654	1641.4
x1 = 0.0673	1644
x1 = 0.0692	1646.6
x1 = 0.0715	1649.5
x1 = 0.0744	1653
x1 = 0.0768	1655.8
x1 = 0.0796	1658.9
x1 = 0.0824	1661.8
x1 = 0.0856	1665
x1 = 0.0887	1667.9
x1 = 0.0921	1670.8
x1 = 0.0965	1674.4
x1 = 0.1006	1677.4
x1 = 0.1051	1680.5
x1 = 0.1102	1683.6
x1 = 0.1153	1686.5
x1 = 0.1208	1689.2
x1 = 0.1238	1690.6
x1 = 0.1303	1693.2
x1 = 0.1382	1696
x1 = 0.1442	1697.7
x1 = 0.1503	1699.3
x1 = 0.1556	1700.5
x1 = 0.1612	1701.6
x1 = 0.167	1702.6
x1 = 0.1694	1703
x1 = 0.1748	1703.7
x1 = 0.1799	1704.3
x1 = 0.1852	1704.8
x1 = 0.1903	1705.2
x1 = 0.1955	1705.6
x1 = 0.2007	1705.9
x1 = 0.2046	1706

Source: the NIST ThermoML archive (doi:10.1016/j.jct.2017.06.001)
